Activity calls are given as the source filed them.
Experiments:
Estrogen receptor beta = Estrogen receptor beta (Homo sapiens, UniProt Q92731); test: blockers of SRC-3 recruitment to ERβ – biochemical, ELISA, streptavidin-HRP readout, orthogonal assay, confirmation (AID 1060)
[1] = biological target: Peroxisome proliferator-activated receptor gamma/Nuclear receptor coactivator 3 (Homo sapiens, UniProt P37231); type: functional;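 further: agonist potency for raising coactivator recruitment to the receptor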
Hexokinase HKDC1 = biological target: T1, Hexokinase HKDC1 (Homo sapiens, UniProt Q2TB90); test: inhibition of HKDC1 glucose phosphorylation – biochemical, W721R variant, dose response (AID 504729); type: functional
T1 sequence (Q2TB90 whole entry): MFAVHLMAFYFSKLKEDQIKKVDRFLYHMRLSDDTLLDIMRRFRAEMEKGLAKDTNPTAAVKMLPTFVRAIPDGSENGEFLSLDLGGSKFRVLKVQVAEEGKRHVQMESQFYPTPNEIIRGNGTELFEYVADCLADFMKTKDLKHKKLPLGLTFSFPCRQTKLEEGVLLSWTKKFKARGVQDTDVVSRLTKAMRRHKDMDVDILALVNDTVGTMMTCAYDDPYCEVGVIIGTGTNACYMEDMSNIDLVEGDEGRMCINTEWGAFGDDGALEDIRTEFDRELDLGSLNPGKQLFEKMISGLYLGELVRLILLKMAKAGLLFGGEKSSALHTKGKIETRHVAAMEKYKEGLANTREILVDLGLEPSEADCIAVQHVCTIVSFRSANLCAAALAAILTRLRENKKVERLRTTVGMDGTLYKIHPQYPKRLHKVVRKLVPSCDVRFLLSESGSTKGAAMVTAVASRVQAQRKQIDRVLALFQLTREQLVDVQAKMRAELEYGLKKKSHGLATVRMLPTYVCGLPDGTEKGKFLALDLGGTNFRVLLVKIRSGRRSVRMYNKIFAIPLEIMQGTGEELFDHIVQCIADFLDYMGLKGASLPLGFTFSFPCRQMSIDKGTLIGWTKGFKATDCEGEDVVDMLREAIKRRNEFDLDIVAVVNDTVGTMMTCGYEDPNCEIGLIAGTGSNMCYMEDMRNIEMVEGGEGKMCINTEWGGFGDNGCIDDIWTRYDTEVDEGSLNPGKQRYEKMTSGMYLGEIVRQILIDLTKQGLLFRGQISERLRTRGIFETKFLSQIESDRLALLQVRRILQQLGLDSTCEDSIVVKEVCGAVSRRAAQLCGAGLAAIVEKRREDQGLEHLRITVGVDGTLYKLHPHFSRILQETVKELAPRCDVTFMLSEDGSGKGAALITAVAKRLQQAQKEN

[2] = biological target: T2, Oxysterols receptor LXR-beta (Homo sapiens, UniProt P55055); type: functional, cell-based;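 further: Cell-based luminescence dose-response assay of agonist activity at LXR, run as a confirmatory counterscreen to a daf-12 agonist screen; HEK293 cells with Gal4-LXR fusion and GAL4-driven luciferase reporter; agonist potency from rising luciferase signal of a Gal4-LXR reporter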
T2 sequence (P55055 whole entry): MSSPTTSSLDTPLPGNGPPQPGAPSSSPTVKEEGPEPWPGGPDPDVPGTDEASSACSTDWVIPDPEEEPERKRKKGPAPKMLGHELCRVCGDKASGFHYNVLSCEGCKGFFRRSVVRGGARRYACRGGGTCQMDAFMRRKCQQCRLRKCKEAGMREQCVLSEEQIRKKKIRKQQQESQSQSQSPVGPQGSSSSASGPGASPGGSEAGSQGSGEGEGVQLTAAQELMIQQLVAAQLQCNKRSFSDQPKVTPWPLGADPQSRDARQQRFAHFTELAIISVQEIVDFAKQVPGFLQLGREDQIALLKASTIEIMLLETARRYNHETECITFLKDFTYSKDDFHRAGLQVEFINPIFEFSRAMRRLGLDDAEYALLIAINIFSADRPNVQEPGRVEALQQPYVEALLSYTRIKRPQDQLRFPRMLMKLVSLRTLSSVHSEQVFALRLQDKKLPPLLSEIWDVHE

[3] = biological target: cAMP-dependent protein kinase catalytic subunit PRKX (Homo sapiens, UniProt P51817); type: functional
[4] = biological target: Receptor tyrosine-protein kinase erbB-2 (Homo sapiens, UniProt P04626); test: Navigating the Kinome. Panel member name: ERBB2; type: functional
[5] = biological target: Mitogen-activated protein kinase 8 (Homo sapiens, UniProt P45983); type: functional;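 further: value comes from one member of a kinome-wide kinase profiling panel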
[6] = biological target: Fibroblast growth factor receptor 3 (Homo sapiens, UniProt P22607); type: functional
[7] = biological target: Proto-oncogene tyrosine-protein kinase Src (Homo sapiens, UniProt P12931); type: functional;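 further: SRC entry within a kinome-wide kinase profiling panel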
[8] = biological target: Dual specificity protein kinase CLK2 (Homo sapiens, UniProt P49760); type: functional
[9] = biological target: Proto-oncogene tyrosine-protein kinase ROS (Homo sapiens, UniProt P08922); type: functional;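 further: ROS1 tested as one member of a kinome-wide kinase panel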
Chain of Proto-oncogene tyrosine-protein kinase ROS (P08922 whole entry): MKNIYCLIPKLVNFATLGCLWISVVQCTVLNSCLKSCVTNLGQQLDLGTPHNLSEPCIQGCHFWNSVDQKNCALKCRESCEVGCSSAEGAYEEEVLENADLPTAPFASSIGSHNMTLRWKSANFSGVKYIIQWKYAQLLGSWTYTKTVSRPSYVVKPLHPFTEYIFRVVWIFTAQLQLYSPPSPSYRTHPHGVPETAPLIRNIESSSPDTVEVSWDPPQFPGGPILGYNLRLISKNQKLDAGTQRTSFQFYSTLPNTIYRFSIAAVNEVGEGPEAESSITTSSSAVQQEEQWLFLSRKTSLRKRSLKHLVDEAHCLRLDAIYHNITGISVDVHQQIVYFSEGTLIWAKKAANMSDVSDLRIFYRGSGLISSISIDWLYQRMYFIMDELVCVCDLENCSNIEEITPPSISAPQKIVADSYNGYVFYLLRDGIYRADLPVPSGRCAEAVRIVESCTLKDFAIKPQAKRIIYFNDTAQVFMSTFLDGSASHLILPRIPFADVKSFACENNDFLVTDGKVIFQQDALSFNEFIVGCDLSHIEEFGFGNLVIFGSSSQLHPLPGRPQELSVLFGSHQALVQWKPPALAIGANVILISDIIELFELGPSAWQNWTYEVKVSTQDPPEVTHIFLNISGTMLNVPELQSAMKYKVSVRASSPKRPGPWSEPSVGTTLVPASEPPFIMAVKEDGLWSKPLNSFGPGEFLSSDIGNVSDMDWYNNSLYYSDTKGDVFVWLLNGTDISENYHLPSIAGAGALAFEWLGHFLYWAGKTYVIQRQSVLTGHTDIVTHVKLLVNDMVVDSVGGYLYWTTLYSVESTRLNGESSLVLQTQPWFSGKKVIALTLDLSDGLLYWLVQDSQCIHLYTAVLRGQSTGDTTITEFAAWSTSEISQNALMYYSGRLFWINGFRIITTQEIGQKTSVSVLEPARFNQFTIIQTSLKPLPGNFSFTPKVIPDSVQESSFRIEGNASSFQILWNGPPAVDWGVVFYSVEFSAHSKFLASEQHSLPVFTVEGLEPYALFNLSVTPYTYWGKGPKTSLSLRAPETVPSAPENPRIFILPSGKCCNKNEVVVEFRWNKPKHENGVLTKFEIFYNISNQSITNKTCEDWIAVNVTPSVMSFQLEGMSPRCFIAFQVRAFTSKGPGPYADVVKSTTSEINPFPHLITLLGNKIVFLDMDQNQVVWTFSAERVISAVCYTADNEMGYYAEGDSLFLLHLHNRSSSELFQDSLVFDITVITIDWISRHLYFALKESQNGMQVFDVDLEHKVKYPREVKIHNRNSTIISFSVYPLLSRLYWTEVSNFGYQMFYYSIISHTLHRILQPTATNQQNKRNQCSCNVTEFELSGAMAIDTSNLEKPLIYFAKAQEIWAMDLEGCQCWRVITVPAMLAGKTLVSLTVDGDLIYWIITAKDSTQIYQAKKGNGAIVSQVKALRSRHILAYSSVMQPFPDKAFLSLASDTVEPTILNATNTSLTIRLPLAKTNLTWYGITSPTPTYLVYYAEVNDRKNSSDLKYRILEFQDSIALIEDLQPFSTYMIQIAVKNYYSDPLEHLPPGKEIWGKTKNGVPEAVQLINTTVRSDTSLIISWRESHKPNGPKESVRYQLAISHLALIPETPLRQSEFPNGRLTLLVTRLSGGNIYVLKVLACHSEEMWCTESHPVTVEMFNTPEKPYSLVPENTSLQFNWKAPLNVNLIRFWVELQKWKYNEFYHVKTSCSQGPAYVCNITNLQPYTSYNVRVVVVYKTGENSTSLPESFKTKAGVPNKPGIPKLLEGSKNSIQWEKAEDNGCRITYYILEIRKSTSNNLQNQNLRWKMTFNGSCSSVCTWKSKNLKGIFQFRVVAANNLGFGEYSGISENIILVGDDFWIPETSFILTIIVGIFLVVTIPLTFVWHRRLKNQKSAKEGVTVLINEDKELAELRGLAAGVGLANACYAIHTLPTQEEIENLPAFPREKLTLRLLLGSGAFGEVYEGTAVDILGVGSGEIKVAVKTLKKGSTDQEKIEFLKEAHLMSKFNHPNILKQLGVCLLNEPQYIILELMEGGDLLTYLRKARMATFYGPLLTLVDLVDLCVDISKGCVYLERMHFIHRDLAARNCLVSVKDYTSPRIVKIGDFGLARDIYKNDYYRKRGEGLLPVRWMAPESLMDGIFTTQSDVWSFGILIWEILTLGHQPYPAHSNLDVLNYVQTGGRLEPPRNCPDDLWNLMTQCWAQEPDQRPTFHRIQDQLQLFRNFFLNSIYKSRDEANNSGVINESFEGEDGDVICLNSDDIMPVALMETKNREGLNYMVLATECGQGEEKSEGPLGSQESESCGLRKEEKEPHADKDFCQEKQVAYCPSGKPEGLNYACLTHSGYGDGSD

[10] = biological target: Vascular endothelial growth factor receptor 2 (Homo sapiens, UniProt P35968); type: functional
Aurora kinase A = Aurora kinase A (Homo sapiens, UniProt O14965); type: functional;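 further: value from the Navigating the Kinome kinase panel profiling, panel entry STK6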
Ephrin type-A receptor 2 = Ephrin type-A receptor 2 (Homo sapiens, UniProt P29317); type: functional;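 further: EPHA2 tested as one member of a kinome-wide kinase panel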
Chain of Ephrin type-A receptor 2 (P29317 whole entry): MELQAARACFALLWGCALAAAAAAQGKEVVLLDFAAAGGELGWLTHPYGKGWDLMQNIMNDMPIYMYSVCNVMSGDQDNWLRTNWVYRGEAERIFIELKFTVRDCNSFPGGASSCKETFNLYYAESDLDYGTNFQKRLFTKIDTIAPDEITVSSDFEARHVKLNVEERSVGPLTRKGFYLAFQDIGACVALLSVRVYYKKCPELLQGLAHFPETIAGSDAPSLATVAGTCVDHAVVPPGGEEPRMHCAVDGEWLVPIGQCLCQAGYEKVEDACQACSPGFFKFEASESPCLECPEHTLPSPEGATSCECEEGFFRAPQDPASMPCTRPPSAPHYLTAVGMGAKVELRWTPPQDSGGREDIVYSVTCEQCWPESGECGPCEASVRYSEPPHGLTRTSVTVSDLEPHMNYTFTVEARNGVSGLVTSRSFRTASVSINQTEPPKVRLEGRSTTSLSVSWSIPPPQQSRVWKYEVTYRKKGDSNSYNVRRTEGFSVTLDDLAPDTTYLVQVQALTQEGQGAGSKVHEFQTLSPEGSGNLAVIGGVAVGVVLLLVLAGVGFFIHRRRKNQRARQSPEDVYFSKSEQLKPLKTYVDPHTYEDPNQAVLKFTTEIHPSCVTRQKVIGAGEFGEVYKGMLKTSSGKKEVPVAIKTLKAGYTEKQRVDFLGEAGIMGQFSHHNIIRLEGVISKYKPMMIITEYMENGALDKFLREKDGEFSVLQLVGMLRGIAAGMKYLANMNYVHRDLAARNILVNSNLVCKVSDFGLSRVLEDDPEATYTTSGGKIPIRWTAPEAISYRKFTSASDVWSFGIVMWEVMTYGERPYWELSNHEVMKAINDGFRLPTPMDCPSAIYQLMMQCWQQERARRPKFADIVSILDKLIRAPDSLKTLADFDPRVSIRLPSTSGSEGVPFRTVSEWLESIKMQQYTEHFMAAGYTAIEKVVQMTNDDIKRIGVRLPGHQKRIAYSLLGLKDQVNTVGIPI

[11] = biological target: Serine/threonine-protein kinase TAO1 (Homo sapiens, UniProt Q7L7X3); type: functional
Chain of Serine/threonine-protein kinase TAO1 (Q7L7X3 whole entry): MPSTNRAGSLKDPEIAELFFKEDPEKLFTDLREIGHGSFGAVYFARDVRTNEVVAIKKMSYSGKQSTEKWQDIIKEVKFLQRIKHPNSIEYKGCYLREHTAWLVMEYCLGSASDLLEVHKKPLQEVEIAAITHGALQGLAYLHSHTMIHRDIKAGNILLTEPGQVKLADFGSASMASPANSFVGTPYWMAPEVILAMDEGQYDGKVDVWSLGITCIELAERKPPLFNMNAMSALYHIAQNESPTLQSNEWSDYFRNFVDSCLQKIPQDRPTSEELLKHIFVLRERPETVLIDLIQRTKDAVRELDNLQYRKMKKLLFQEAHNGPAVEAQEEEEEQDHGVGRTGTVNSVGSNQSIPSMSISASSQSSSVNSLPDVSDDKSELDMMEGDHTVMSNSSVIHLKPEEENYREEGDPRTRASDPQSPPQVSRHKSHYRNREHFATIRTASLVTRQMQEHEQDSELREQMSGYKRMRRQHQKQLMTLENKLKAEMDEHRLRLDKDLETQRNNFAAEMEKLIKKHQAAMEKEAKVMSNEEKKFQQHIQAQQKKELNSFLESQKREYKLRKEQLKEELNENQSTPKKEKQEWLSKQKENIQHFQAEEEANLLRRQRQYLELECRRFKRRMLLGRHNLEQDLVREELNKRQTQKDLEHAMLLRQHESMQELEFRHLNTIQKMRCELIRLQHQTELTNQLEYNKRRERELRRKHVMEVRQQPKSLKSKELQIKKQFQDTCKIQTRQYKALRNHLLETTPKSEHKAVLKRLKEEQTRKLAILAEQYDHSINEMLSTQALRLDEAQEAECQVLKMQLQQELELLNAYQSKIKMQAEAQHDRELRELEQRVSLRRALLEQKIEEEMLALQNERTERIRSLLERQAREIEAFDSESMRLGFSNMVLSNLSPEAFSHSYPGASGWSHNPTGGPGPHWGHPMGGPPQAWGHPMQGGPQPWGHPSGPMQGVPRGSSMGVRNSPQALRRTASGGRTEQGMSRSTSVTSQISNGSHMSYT

[12] = biological target: Serine/threonine-protein kinase pim-1 (Homo sapiens, UniProt P11309); type: functional
[13] = biological target: Rho-associated protein kinase 2 (Homo sapiens, UniProt O75116); type: functional
[14] = biological target: Dual specificity tyrosine-phosphorylation-regulated kinase 1A (Homo sapiens, UniProt Q13627); type: functional;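 further: measured against DYRK1A as one member of a broad kinome profiling panel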
[15] = biological target: MAP kinase-interacting serine/threonine-protein kinase 2 (Homo sapiens, UniProt Q9HBH9); type: functional
[16] = biological target: Ribosomal protein S6 kinase alpha-3 (Homo sapiens, UniProt P51812); type: functional;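 further: measured within a kinome-wide profiling panel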
Chain of Ribosomal protein S6 kinase alpha-3 (P51812 whole entry): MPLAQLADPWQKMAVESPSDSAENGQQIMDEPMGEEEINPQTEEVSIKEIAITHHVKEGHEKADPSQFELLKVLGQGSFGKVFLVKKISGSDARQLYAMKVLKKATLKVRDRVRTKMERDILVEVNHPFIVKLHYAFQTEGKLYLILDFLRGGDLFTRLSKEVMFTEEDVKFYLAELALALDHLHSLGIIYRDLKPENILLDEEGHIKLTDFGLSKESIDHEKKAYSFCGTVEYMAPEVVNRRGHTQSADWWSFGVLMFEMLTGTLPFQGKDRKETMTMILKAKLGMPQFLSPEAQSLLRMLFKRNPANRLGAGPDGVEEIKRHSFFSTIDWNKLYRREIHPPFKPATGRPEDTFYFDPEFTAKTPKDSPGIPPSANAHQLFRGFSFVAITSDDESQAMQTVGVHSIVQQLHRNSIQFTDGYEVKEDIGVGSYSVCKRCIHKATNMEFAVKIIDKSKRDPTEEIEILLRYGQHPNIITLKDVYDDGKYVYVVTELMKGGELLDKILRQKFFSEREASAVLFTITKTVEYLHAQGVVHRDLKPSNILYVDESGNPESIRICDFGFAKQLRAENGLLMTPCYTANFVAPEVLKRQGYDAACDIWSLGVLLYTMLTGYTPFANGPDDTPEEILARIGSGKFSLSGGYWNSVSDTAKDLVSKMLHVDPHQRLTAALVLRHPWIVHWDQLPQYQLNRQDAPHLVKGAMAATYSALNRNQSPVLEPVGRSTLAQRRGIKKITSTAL

[17] = biological target: Alkaline phosphatase, placental type (Homo sapiens, UniProt P05187); test: human placental alkaline phosphatase inhibition – biochemical, luminescence, confirmation (AID 1512); type: functional
Wee1-like protein kinase = Wee1-like protein kinase (Homo sapiens, UniProt P30291); test: Dose Response Cell-based Assay for Inhibitors of Wee1 Degradation. [Related pubchem assays: 1410, 1321 ]; type: functional
BJ = test: BJ-TERT-LT-ST fibroblast viability loss – cell-based, RAS-independent, luminescence, dose response (AID 1935); type: functional; details: Homo sapiens;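 further: BJ fibroblasts immortalized with TERT plus LT and ST oncogenes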
[18] = biological target: G2/mitotic-specific cyclin-B1 (Homo sapiens, UniProt P14635); test: Counterscreen assay for inhibitors of Wee1 degradation: dose response cell-based assay to identify inhibitors of cyclin B degradation. [Related pubchem assays: 1410, 1321 ]; type: functional
Mu-type opioid receptor = Mu-type opioid receptor (Homo sapiens, UniProt P35372); test: HTS Image-Based Screen for Agonists of the MOR Receptor. [Related pubchem assays (depositor defined):AID1777, AID1785, AID1786, AID2133]; type: functional;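 further: imaging of beta-arrestin GFP recruitment into spots after receptor activation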

SMILES: CN(C)c1ncc(C2=C(Cl)C(=O)C(N3CCCC3)=C(Cl)C2=O)s1
- IC50 (Estrogen receptor beta): 20.6 µM (not active)
- EC50 [1]: > 79.4 µM (not active)

SMILES: Cc1ccc(C(=O)c2c(C)oc3c2C(=O)C(=O)c2ccccc2-3)cc1
- IC50 (Hexokinase HKDC1): 6.94 µM (active)

SMILES: Cc1cnc(NC(=O)c2sc3ccccc3c2Cl)s1
- EC50 [2]: > 67.5 µM (inactive)

SMILES: O=C1NC(=S)SC1=C1C(=O)Nc2ccc(Br)cc21
- Ki [3]: > 1.58 µM (inactive)
- Ki [4]: > 1.58 µM (inactive)
- Ki [5]: 1 µM (active)
- Ki [6]: > 2 µM (inactive)
- Ki [7]: > 2 µM (inactive)
- Ki [8]: 7.94 µM (active)
- Ki [9]: > 2 µM (inactive)
- Ki [10]: > 7.94 µM (inactive)
- Ki (Aurora kinase A): 0.501 µM (active)
- Ki (Ephrin type-A receptor 2): > 3.16 µM (inactive)
- Ki [11]: 5.01 µM (active)
- Ki [12]: 0.0631 µM (active)
- Ki [13]: 0.794 µM (active)
- Ki [14]: 1 µM (active)
- Ki [15]: 0.794 µM (active)
- Ki [16]: > 7.94 µM (inactive)

SMILES: Cc1ccc(Nc2cc(C)nn2-c2nc(C)cc(O)n2)cc1
- IC50 [17]: > 100 µM (inactive)
- EC50 (Wee1-like protein kinase): > 1.84 µM (active)
- EC50 (BJ): 2.94 µM (inconclusive)
- EC50 [18]: > 49.7 µM (not active)
- EC50 (Mu-type opioid receptor): > 32 µM (inactive)

Source: ChEMBL document CHEMBL1201862, “PubChem BioAssay data set” (2004)
